Measurements as given in patent publication US20130178441A1, “Methods for Extending Progression-Free Survival using 10-Propargyl-10-Deazaaminopterin” (ALLOS THERAPEUTICS, INC., priority 2010, published 2013).

System: patients with relapsed or refractory PTCL
Test: PROPEL analysis by treatment duration: treatment discontinuation and adverse events
Type: in vivo, human
Experimental: The pivotal PROPEL study of pralatrexate (FOLOTYN®) in patients with relapsed or refractory PTCL reported a rapid response to treatment in a heavily pretreated patient population. The majority of patients (63% of responders) responded by their first assessment at 7 weeks (the end of cycle 1). The present analysis assessed if there were any unique characteristics of patients who were unable to complete the first cycle of therapy and to assess the outcomes of patients who received ≧1 or ≧2 cycles of pralatrexate. Pralatrexate, a folate analog targeting dihydrofolate reductase, was approved in the United States for treatment of relapsed or refractory PTCL based on the PROPEL study. Methods: In PROPEL, patients received 30 mg/m^2 pralatrexate once weekly for 6 weeks in successive 7-week cycles. […] Cycle completion was determined receiving ≧1 dose in the following cycle. Thus, the subgroup of patients who completed ≧1 (n=64) includes those patients who only completed 1 cycle+the 43 who completed ≧2 cycles of treatment. […] However, the patients not completing cycle lwere more likely to have the angioimmunoblastic subtype (20% vs 6%). Patients in each subgroup received a median of 3 prior treatment regimens.
The most frequent reasons for treatment discontinuation were similar for patients with <1 cycle, ≧1 cycle or ≧2 cycles, although the incidence of discontinuation was lower for patients with ≧1 or 2 cycles. […] However, the percentage of patients in whom mucosal inflammation led to treatment discontinuation was similar (<1: 4%; ≧1: 6%; ≧2: 2%). […] Patients who were unable to complete cycle 1 were more likely to have quickly progressed through multiple lines of therapy and were more likely to have the angioimmunoblastic subtype, which a subtype is thought to have a different biology than other PTCL subtypes and lower chemosensitivity. Further analysis of this subtype is warranted.

## C#CCC(Cc1cnc2nc(N)nc(N)c2n1)c1ccc(C(=O)N[C@@H](CCC(=O)O)C(=O)O)cc1 (mixture of isomers) [Pralatrexate, (2S)-2-[[4-[(1RS)-1-[(2,4-diaminopteridin-6-yl)methyl]but-3-ynyl]benzoyl]amino]pentanedioic acid]
4 patients
  Additional patients with dose reductions in cycle 2 due to mucosal inflammation who continued treatment: 9%
45 patients who did not complete cycle 1
  Discontinued due to adverse events (AEs): 29%
<1 cycle
  Incidence of Grade 3-4 anemia: 27%
  Incidence of Grade 3-4 mucosal inflammation: 24%
  Incidence of Grade 3-4 thrombocytopenia: 40%
  Patients in whom mucosal inflammation led to treatment discontinuation: 4%
Eight patients
  Patients with dose reductions due to mucosal inflammation in cycle 1 who continued treatment: 13%
Of the 4 patients with dose reductions in cycle 2 due to mucosal inflammation
  Patients with a response to pralatrexate: 3 patients
Of the 8 patients with dose reductions due to mucosal inflammation in cycle 1
  Patients with a response to pralatrexate: 4 patients
≧1 cycle
  Incidence of Grade 3-4 anemia: 13%
  Incidence of Grade 3-4 mucosal inflammation: 19%
  Incidence of Grade 3-4 thrombocytopenia: 28%
  Patients in whom mucosal inflammation led to treatment discontinuation: 6%
≧2 cycles
  Incidence of Grade 3-4 anemia: 9%
  Incidence of Grade 3-4 mucosal inflammation: 12%
  Incidence of Grade 3-4 thrombocytopenia: 21%
  Patients in whom mucosal inflammation led to treatment discontinuation: 2%
